Structures are written as SMILES. Entries after “also recorded” stand apart in the source; their conditions may differ.

The subject of data set [1] is OVA-specific IgG1 antibodies. Put plainly: Oral ovalbumin immunization, serum OVA-IgG1. It is filed as in vivo. Particulars: WT mice, oral gavage 50 mg/kg, versus vehicle.
The nature of data set [2]: In vivo pharmacokinetic study, blood time-concentration curve. The note with it: single IP injection 10 mg/kg, mice. The method, then:
FIG. 19. Mice blood time-concentration curve of ESI-09.
To determine the bioavailability of EPAC inhibitors, an IP injection formulation was developed in which the compounds were dissolved in ethanol and then diluted 1:10 with a 10% Tween 80 in normal saline solution. This formulation was determined suitable by passing the simulated in vivo blood dilution assay. In vivo pharmacokinetic studies were performed in four week old female C57BL6/N mice.

The target in the next data set is T1, EPAC2 (Mus musculus, UniProt Q9EQZ6).
T1 sequence (Q9EQZ6 1-1011): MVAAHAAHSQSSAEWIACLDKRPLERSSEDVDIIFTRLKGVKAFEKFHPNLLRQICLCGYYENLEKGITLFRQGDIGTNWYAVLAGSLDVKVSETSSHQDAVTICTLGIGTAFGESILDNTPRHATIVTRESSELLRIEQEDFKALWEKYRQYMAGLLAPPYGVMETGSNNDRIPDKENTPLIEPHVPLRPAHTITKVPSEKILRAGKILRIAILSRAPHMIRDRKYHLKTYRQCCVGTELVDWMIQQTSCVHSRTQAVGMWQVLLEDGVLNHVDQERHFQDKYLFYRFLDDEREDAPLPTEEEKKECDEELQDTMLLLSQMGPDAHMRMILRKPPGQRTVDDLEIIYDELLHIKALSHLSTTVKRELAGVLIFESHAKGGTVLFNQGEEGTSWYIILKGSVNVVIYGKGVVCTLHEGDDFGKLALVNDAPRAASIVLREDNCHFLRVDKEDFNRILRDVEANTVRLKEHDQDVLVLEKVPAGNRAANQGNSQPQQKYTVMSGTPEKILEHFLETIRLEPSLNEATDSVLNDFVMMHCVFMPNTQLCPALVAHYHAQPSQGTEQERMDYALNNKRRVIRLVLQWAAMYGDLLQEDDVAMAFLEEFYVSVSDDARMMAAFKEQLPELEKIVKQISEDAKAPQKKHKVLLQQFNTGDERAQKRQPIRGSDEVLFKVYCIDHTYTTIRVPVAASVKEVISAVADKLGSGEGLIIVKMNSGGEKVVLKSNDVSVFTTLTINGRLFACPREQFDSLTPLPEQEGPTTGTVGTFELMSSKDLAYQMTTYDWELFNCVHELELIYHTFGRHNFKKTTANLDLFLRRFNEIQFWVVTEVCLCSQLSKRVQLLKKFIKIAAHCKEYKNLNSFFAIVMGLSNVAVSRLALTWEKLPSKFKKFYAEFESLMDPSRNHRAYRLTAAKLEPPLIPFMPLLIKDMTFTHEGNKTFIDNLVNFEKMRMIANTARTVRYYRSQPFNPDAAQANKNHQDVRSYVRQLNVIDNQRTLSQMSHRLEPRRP
Description: 8-NBD-cAMP competition binding to EPAC2. The method, then: Primary screen is performed in black 96-well or 384-well microplates. As an example, 50 nM EPAC2 solution is prepared in 20 mM Tris buffer, pH 7.5, containing 150 mM NaCl, 1 mM EDTA, and 1 mM […]. […] Sample is dispensed into plate and test compounds added from 96-well mother plates. […] Fluorescence intensity signal from 8-NBD was recorded at room temperature (rt) before and after tested compounds are added using SpectaMaxM2 microplate reader (Molecular Devices, Silicon Valley, Calif., USA) with excitation/emission wavelengths set at 470/540 nm.

Another data set has as its system type II PKA holoenzyme. Put plainly: PKA counter screening, type II holoenzyme. Format: biochemical. Particulars: 25 μM compound. The method, then:
(§1) Kinase activity of the type I and II PKA holoenzyme are measured spectrophotometrically in a 96-well plate with a coupled enzyme assay as described previously (Cook et al. (1982) Biochemistry 21: 5794-5799). In this assay, the formation of ADP is coupled to the oxidation of NADH by the pyruvate kinase/lactate dehydrogenase reactions so the reaction rate can be determined by following the oxidation of NADH, reflected by a decrease in absorbance at 340 nm. […] Reactions are pre-equilibrated at room temperature and initiated by adding the Kemptide substrate (final concentration 0.26 mM).
(In general: The purpose of a counterscreen is to sort out artefacts and off-target activity.)

A further data set deals with type I PKA holoenzyme. Description: PKA counter screening, type I holoenzyme. It is filed as biochemical. The note with it: 25 μM compound. The method, then:
as §1

Regarding `CC(C)(C)c1cc(C(=O)C(C#N)=NNc2cccc(Cl)c2)no1` [ESI-09, 3-(5-Tert-Butyl-Isoxazol-3-Yl)-2-[(3-Chlorophenyl)-Hydrazono]-3-Oxo-Propionitrile], the “serum OVA-specific IgG1 antibodies” value in data set [1] is on record as “significantly higher; also recorded: increases”. In data set [2] (female, C57BL6/N, mouse, whole blood), this compound showed a half-life of 3.5 h. In addition, in data set [2], the “blood levels, maximal values” is recorded as 42,520 ng/ml and the “time of maximal blood level” value was 0.5 h. In addition, the “Relative Potency (RA)” value on EPAC2 (RA = IC50, cAMP/IC50, compound) is listed as 3.9. Besides, at EPAC2 (read-out: Apparent IC50, competing with 8-NBD-cAMP in binding EPAC2), the IC50 is 10 ± 1.2 µM. In the data set on type II PKA holoenzyme, the “cAMP-induced type II PKA holoenzyme activation” value was “did not significantly alter”. Besides, in the data set with type I PKA holoenzyme, the “cAMP-induced type I PKA holoenzyme activation” value is “did not significantly alter”.

For orientation: half-life means how long it takes for the measured level to halve. Read a high half-life as slow loss. A word on the IC50: it is the concentration needed to halve the response being measured.

Values taken from patent US9539256B2 (THE BOARD OF REGENTS OF THE UNIVERSITY OF TEXAS SYSTEM, priority 2012, dated 2017).
